Measured values published in patent EP1203585A1, “ANTI-ISCHEMIC AGENT” (Zakrytoe Aktsionernoe Obschestvo " Asgl-Issledovatelskie …, priority 1999, dated 2001).

Legend:
[1] = test system: rats with experimental myocardial infarction; test: experimental myocardial infarction after occlusion of the descending branch of the left coronary artery (LAD), morphometry of ischemia and injury zones; type: in vivo; settings: for Area of the injury zone: ischemia zone plus necrosis zone; for Area of the injury zone / Area of the necrosis zone / Ratio: necrosis zone /myocard / Ratio: necrosis/ ischemia / Area of the myocardial zone / Area of the ischemia zone / Ratio: ischemia zone/ myocard: third day, PhP 50 mg/kg intraperitoneally 30 minutes before LAD occlusion; for Area of the injury zone / Area of the necrosis zone / Ratio: necrosis zone /myocard / Ratio: necrosis/ ischemia / Area of the ischemia zone / Ratio: ischemia zone/ myocard: Obzidan 0.5 mg/kg; for Area of the injury zone / Area of the ischemia zone / Ratio: ischemia zone/ myocard: * p<0.05 vs physiological solution; for Area of the myocardial zone: Obzidan 0.5 mg/kg 30 minutes before
Protocol: The study on 4-phenyl-2-pyrrolidinone-1-acetic acid amide anti-ischemic activity has been carried out in model of experimental myocardial infarction caused by the experimental myocardial infarction after the descending branch of the left coronary artery (LAD) occlusion in rats. 4-phenyl-2-pyrrolidinone-1-acetic acid amide was administered intraperitoneally in dose 50 mg/kg 30 minutes before the LAD-occlusion. Anti-ischemic activity of the substance was assessed on the third day after its administration by estimation of the area of necrosis, the area of ischemia and the total myocardial necrosis zone (area of necrosis plus area of ischemia). Ischemia zone and myocardial injury zones were assessed by morphometry methods. Results obtained in the experimental animals' groups exposed to the substance were compared with results obtained in animals, exposed to Obzidan and physiological solutionin (PhS) in dose 0.5 mg/kg, administered 30 minutes before the LAD occlusion.

dogs = test: chronic toxicity; type: in vivo; settings: 28 dogs, perorally in doses 50, 250 and 500 mg/kg
rats [2] = test: chronic toxicity; type: in vivo; settings: 160 rats, perorally in doses 50, 250 and 500 mg/kg
acute toxicity (LD50) = test: acute toxicity (LD50); parameters: species or system rats; settings: rat, in vivo
Protocol: Acute toxicity (LD50) has been studied in rats, the substance being administered intraperitoneally and perorally. […] LD50 of the substance administered perorally to rats (males and females) - 2464,8 mg/kg, of the pharmaceutical form - 3185,8 mg/kg.

rats [3] = test: toxicity study, blood and biochemical parameters at 50 and 100 mg/kg; type: in vivo
rats [4] = test: hemodynamics parameters estimated by direct method; type: in vivo
Protocol: In the other study parameters of hemodynamics in rats exposed to PhP have been estimated (minute cardiac supply, cardiac index, cardiac output, heart rate). Hemodynamics parameters have been estimated by direct method on the fourth day after PhP administration in dose 50 mg/kg.

rabbits = test: toxicity study, blood and biochemical parameters at 50 and 100 mg/kg; type: in vivo
[5] = PhP 50 mg/kg intraperitoneally, compared with physiological solution
[6] = 4th day after PhP administration, dose 50 mg/kg

CC(C)NCC(O)COc1cccc2ccccc12 (stereo not drawn) [Obzidan, reference compound]
Area of the injury zone [1]: 203,68 MM^2 | Area of the necrosis zone [1]: 28,48 mm^2 | Ratio: necrosis zone /myocard [1]: 0,059± | Ratio: necrosis/ ischemia [1]: 0,163± | Area of the myocardial zone [1]: 481,13 mm^2 | Area of the ischemia zone [1]: 175,21 mm^2 | Ratio: ischemia zone/ myocard [1]: 0,365±

NC(=O)CN1CC(c2ccccc2)CC1=O (stereo not drawn) [PhP, 4-phenyl-2-pyrrolidinone-1-acetic acid amide]
changes of peripheral blood and heart, kidney and liver functions (dogs): absence of significant changes | changes of peripheral blood and heart, kidney and liver functions (rats [2]): absence of significant changes | Anti-ischemic effect ([1]; PhP 50 mg/kg compared with Obzidan 0.5 mg/kg): exceeded the one of Obzidan | area of ischemia zone (result in words) [1, 5]: statistically significantly reduced | area of the total injury zone (ischemia zone plus necrosis zone) (result in words) [1, 5]: statistically significantly reduced | area of myocardial necrosis (result in words) ([1]; PhP 50 mg/kg intraperitoneally, not statistically significant): nearly twice reduced | Area of the injury zone [1]: 182,53 MM^2 | Area of the necrosis zone [1]: 19,21 mm^2 | Ratio: necrosis zone /myocard [1]: 0,039± | Ratio: necrosis/ ischemia [1]: 0,113± | Area of the myocardial zone [1]: 492,55 mm^2 | Area of the ischemia zone [1]: 163,33 mm^2 | Ratio: ischemia zone/ myocard [1]: 0,332± | LD50 (acute toxicity (LD50); ip, rats, females, administered intraperitoneally): 522 mg/kg | LD50 (acute toxicity (LD50); ip, rats, males, administered intraperitoneally): 538 mg/kg | LD50 (acute toxicity (LD50); po, rats (males and females), administered perorally): 2460 mg/kg | parameters of the peripheral blood, composition of electrolytes and other biochemical parameters (rats [3]): does not influence | Cardiac index (rats [4]; [6]): 133.8 ±9.8 % in comparison with source data before PhP administration | Cardiac output (rats [4]; [6]): 161.8±12.7 % in comparison with source data before PhP administration | Heart rate (rats [4]; [6]): 115.4±3.1 % in comparison with source data before PhP administration | Minute cardiac supply (rats [4]; [6]): 110.8±3.2 % in comparison with source data before PhP administration | inotrop effect (rats [4]; PhP 50 mg/kg): not followed by any negative inotrop effect | parameters of the peripheral blood, composition of electrolytes and other biochemical parameters (rabbits): does not influence
